# Marks after values point to notes of the source that are not given here.
# Columns and labels:
# [1] = cited from earlier work
# HeLa cells = experiment: Apoptosis by V450 Annexin V / propidium iodide flow cytometry; format: cell-based
# From the text: Staining with V450 Annexin V (BD Biosciences) was used to analyse the percentage of cells within a population that are actively undergoing apoptosis. Propidium Iodide (PI) is a standard DNA-staining flow cytometric viability probe and is used to distinguish viable from nonviable cells. Cells that stain positive for V450 Annexin V and negative for PI are undergoing apoptosis. Cells that stain positive for both V450 Annexin V and PI are either in the end stages of apoptosis, are undergoing necrosis, or are already dead. Cells that stain negative for both V450 Annexin V and PI are alive and not undergoing measurable apoptosis.
# For this reason these cells were chosen to evaluate the effects of these compounds on cell death. A 2 ml aliquot of growth medium containing 20,000 cells was seeded into each well of a 6 well plate. […] The growth medium was removed and retained and the cells washed with PBS followed by Incubation with 1 ml of Accutase (Life Technologies, Paisley, UK, Catalog Number A11105-01) per well for 15 mins. The original growth medium was then added back to neutralise the Accutase, and this centrifuged at 1,200 rpm for 5 mins to pellet the cells and this repeated twice with cold PBS. The cell pellet was finally re-suspended in 1× binding buffer (10×=0.1 M Hepes (pH 7.4), 1.4 M NaCl, 25 mM CaCl2) at a concentration of 10^6 cell/ml. A 100 μl aliquot containing 10^5 cells was removed and placed in a 5 ml culture tube and 5 μl of V450 Annexin V added plus 10 μl PI (50 μg/ml) added. The cells were gently mixed and incubated at room temperature for 15 min in the dark then 400 μl of 1× binding buffer was added prior to being analysed by flow cytometry using a Cyan ADP instrument (Beckman Coulter) and Summit software within one hour of the above procedure. The Annexin fluorochrome was excited using a 405 nm laser and the emission measured using a 450/50 nm bandpass filter. The PI was excited using a 488 nm laser and the emission detected using a 613/20 nm bandpass filter. The data was gated to select single cells using a plot of forward scatter against pulse width, and to exclude debris using forward scatter plotted against side scatter. All cytometry assays shown were the result of three separate cultures and intra-assay variability was also assessed by repeating the same drug treatment assay (1:1 Lop/Rit) three times. Unstained cells and cells stained separately with either V450 Annexin V or PI were used as controls to optimise compensation and gating of the cytometer.
# SiHa cells = experiment: CellTitre 96 AQ colorimetric cell growth assay; format: cell-based; settings: 5 μM, 0-72 hours
# Experimental: SiHa cells were grown in RPMI plus 10% FBS and HeLa in DMEM plus 10% FBS. These were seeded at 2000 cells/well for HeLa and 5000 cells/well for SiHa in triplicate into standard tissue culture grade 96 well plates and incubated overnight at 37° C./5% CO2. […] At each time point 20 μl of CellTitre 96® AQ reagent (Promega) was then added to three separate wells per data point and the absorbance (OD490) read after 1 hour at 37° C. The CellTitre 96® AQ reagent is a water soluble MTS formazan version of the well-known MTT reagent which produces a colorimetric readout that is directly proportional to the number of viable cells present.
# [2] = system: pre-invasive cells derived from the cervix; settings: cited from earlier work
# glioma = settings: ritonavir alone; cited from earlier work
# [3] = system: more advanced invasive cervical disease; settings: cited from earlier work
# CIN2 lesions = settings: young women aged 18-29; topical, physician applied, 16 weeks; cited from earlier work
# CIN2/3 = settings: topical application; cited from earlier work
# HPV infection = settings: hybrid capture 2 assay; cited from earlier work
# CIN and HPV infections = settings: cited from earlier work
compound,measurement,setting,value
"Cc1cccc(C)c1OCC(=O)N[C@@H](Cc1ccccc1)[C@@H](O)C[C@H](Cc1ccccc1)NC(=O)[C@H](C(C)C)N1CCCNC1=O (relative stereo) [lopinavir, [1S-[1R*(R*), 3R*, 4R*]]—N-[4-[(2,6-dimethylphenoxy0acetyl]amino]-3-hydroxy-5-phenyl-1-(phenylmethyl)pentyl]tetrahydro-alpha-(1-methylethyl)-2-oxo-1 (2H)-pyrimidineacetamide]",solubility in water,[1],virtually insoluble in water
same,"R4 gate Mean (percentage of cells in quadrant R4, late stage apoptosis)","HeLa cells; 48 hrs, total dose 25 μM, concentrations (μM) in the label",21.8000%
same,"Mean Difference to DMSO, R4 gate (Dunnett t)","HeLa cells; 48 hrs, versus DMSO control",15.38*
same,level of apoptosis compared between treatments (FIG. 13),"HeLa cells; total dose 25 μM, R4 and R6+R4",less effective than any of the combination treatments
same,"Mean Difference, R4 gate (Bonferonni)",HeLa cells; versus Lop20Rit5,−13.45*
"CC(C)c1nc(CN(C)C(=O)N[C@H](C(=O)N[C@@H](Cc2ccccc2)C[C@H](O)[C@H](Cc2ccccc2)NC(=O)OCc2cncs2)C(C)C)cs1 (relative stereo) [ritonavir, 10-Hydroxy-2-methyl-5-(1-methylethl)-1-[2-(1-methylethyl)-4-thiazolyl]-3,6-dioxo-8, 11bis(phenylmethyl)-2,4,7,12-tetraazatridecan-13-oic acid, 5-thiazolylmethylester, [5S-(5R*,8R*,10R8,11R*)]]",effect on cell growth (OD490),SiHa cells,no effect
same,activity against pre-invasive cells derived from the cervix,[2],has shown activity
same,effect against glioma in vivo,glioma,no effect
same,efficacy against more advanced invasive cervical disease,[3],not effective
O=c1[nH]cc(F)c(=O)[nH]1 [5FU],effective against CIN2 lesions,CIN2 lesions,> 90%
Nc1ccn(C[C@@H](CO)OCP(=O)(O)O)c(=O)n1 [Cidofovir],clearance of CIN,CIN2/3,~60%
same,elimination of HPV infection,HPV infection,did not eliminate HPV infection
CC(C)Cn1cnc2c(N)nc3ccccc3c21 [Imiquimod],effect against CIN and HPV infections,"CIN and HPV infections; before and after LEEP, treatment >8 weeks",some effect
same,side effects,CIN and HPV infections; direct application to the cervix,quite severe
